Legend:
Assay in all cases: drug sensitivity score (DSS2, normalised partial AUC of dose-response, 72 h CellTiter-Glo viability) (DSS (dimensionless)); higher = more sensitive (stronger growth inhibition / cytotoxicity); extreme values may be limits of the assay
CAF#3 = test system: CAF#3 (primary prostate cancer-associated fibroblasts of myCAF-like type)
In short: (§1)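 Cells were added to 384-well plates already holding compounds at five doses over a 10,000-fold range: low-passage primary prostate cancer-associated fibroblasts, PF179T, WPMY-1, LNCaP and 22Rv1. Viability was measured 72 h later by CellTiter-Glo 2.0 luminescence and scaled to vehicle and positive-control wells. The drug sensitivity score, computed in BREEZE, is a partial area under the fitted logistic dose–response curve divided by the log of its upper asymptote, with higher scores meaning greater sensitivity.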

CAF#7 = test system: CAF#7 (primary prostate cancer-associated fibroblasts of myCAF-like type)
In short: as §1

CAF#1 = test system: CAF#1 (primary prostate cancer-associated fibroblasts of myCAF-like type)
In short: as §1

CAF#6 = test system: CAF#6 (primary prostate cancer-associated fibroblasts of iCAF-like type)
In short: as §1

CAF#2 = test system: CAF#2 (primary prostate cancer-associated fibroblasts of iCAF-like type)
In short: as §1

22Rv1 = test system: 22Rv1
In short: as §1

WPMY-1 = test system: WPMY-1
In short: as §1

PF179T = test system: PF179T
In short: as §1

CAF#4 = test system: CAF#4 (primary prostate cancer-associated fibroblasts of iCAF-like type)
In short: as §1

LNCAP = test system: LNCAP
In short: as §1

CAF#5 = test system: CAF#5 (primary prostate cancer-associated fibroblasts of myCAF-like type)
In short: as §1

| SMILES | drug sensitivity score (CAF#3) | drug sensitivity score (CAF#7) | drug sensitivity score (CAF#1) | drug sensitivity score (CAF#6) | drug sensitivity score (CAF#2) | drug sensitivity score (22Rv1) | drug sensitivity score (WPMY-1) | drug sensitivity score (PF179T) | drug sensitivity score (CAF#4) | drug sensitivity score (LNCAP) | drug sensitivity score (CAF#5) |
| --- | --- | --- | --- | --- | --- | --- | --- | --- | --- | --- | --- |
| O=c1[nH]c(=O)n([C@H]2C[C@H](O)[C@@H](CO)O2)cc1C(F)(F)F [Trifluridine] (tested concentration range 1-10000 nM) | 0 | 0 | 0 | 0 | 1 | 5 | 4.7 | 0.1 | 0 | 4 | 0 |
| CC(=O)Nc1cccc(-n2c(=O)n(C3CC3)c(=O)c3c(Nc4ccc(I)cc4F)n(C)c(=O)c(C)c32)c1 [Trametinib] (tested concentration range 0-250 nM) | 0 | 4.2 | 3 | 1.7 | 5.5 | 11.8 | 5.5 | 1.8 | 1.3 | 0 | 2.7 |
| CCC/C=C/C=C/C(=O)O[C@H]1/C(=C/C(=O)OC)C[C@H]2C[C@H]([C@@H](C)O)OC(=O)C[C@H](O)C[C@@H]3C[C@H](OC(C)=O)C(C)(C)[C@](O)(C[C@@H]4C/C(=C/C(=O)OC)C[C@H](/C=C/C(C)(C)[C@]1(O)O2)O4)O3 [Bryostatin 1] (tested concentration range 0-100 nM) | 0.6 | 4 | 4.2 | 2.6 | 3.4 | 0 | 1.3 | 0 | 0.5 | 0.1 | 3 |
| CC(C)NC(=O)COc1cccc(-c2nc(Nc3ccc4[nH]ncc4c3)c3ccccc3n2)c1 [KD025] (tested concentration range 0.5-5000 nM) | 2.2 | 0.5 | 0 | 0 | 0.1 | 1 | 2.1 | 0 | 0.1 | 4.5 | 1.1 |
| C=CC[C@@H]1/C=C(\C)C[C@H](C)C[C@H](OC)[C@H]2O[C@@](O)(C(=O)C(=O)N3CCCC[C@H]3C(=O)O[C@H](/C(C)=C/[C@@H]3CC[C@@H](O)[C@H](OC)C3)[C@H](C)[C@@H](O)CC1=O)[C@H](C)C[C@@H]2OC [Tacrolimus] (tested concentration range 1-10000 nM) | 0.2 | 2 | 0.9 | 2.3 | 2.7 | 2.3 | 1 | 0 | 0 | 6.8 | 0.9 |
| CN1CCC(COc2cnc(-c3cccc(Cn4nc(-c5cccc(C#N)c5)ccc4=O)c3)nc2)CC1 [Tepotinib] (tested concentration range 0.1-1000 nM) | 0 | 0 | 0 | 0 | 3.4 | 0 | 0.7 | 2.4 | 0.5 | 0 | 3 |
| O=c1[nH]c(C2CCCN2)nc2c1oc1ccc(Cl)cc12 (centres undefined) (tested concentration range 1-10000 nM) | 1.6 | 0 | 0 | 0 | 0 | 0.6 | 3.3 | 0 | 0 | 2.7 | 0 |
| CCN(c1cc(-c2ccc(CN3CCOCC3)cc2)cc(C(=O)NCc2c(C)cc(C)[nH]c2=O)c1C)C1CCOCC1 [Tazemetostat] (tested concentration range 1-10000 nM) | 1.2 | 0 | 1 | 0.7 | 1.8 | 0 | 0 | 0 | 0.4 | 1.9 | 0.9 |
| CC(O)c1cc(C(=O)N[C@@H](C)Cn2ccc(-c3ccc(C#N)c(Cl)c3)n2)n[nH]1 (some centres undefined) [Darolutamide] (tested concentration range 0.2-2500 nM) | 0.1 | 0 | 3.1 | 0 | 2.2 | 0.6 | 0 | 0 | 4.4 | 0.1 | 2.9 |
| C[C@@H]1CN(Cc2ccc(F)cc2)[C@@H](C)CN1C(=O)c1cc2c(C(=O)C(=O)N(C)C)cn(C)c2cc1Cl [Talmapimod] (tested concentration range 1-10000 nM) | 0 | 0 | 0 | 0 | 0 | 0 | 0 | 0 | 0 | 1.9 | 0 |
| CCc1cc2c(cc1N1CCC(N3CCOCC3)CC1)C(C)(C)c1[nH]c3cc(C#N)ccc3c1C2=O [Alectinib] (tested concentration range 0.1-1000 nM) | 0 | 0 | 1 | 0 | 0.2 | 0.2 | 0 | 0 | 0 | 0.5 | 0.3 |
| C[C@@H]1COCCN1c1cc(C2([S@](C)(=N)=O)CC2)nc(-c2cc[nH]c3nccc2-3)n1 [Ceralasertib] (tested concentration range 2.5-25000 nM) | 6.7 | 6.3 | 6.6 | 6.2 | 9.3 | 10 | 13.9 | 8.1 | 8 | 10.7 | 7.8 |
| CCCCNc1ncc(C(=O)NCc2ccc(-n3ccnc3)cc2)c(NC2CCC(O)CC2)n1 (centres undefined) [UNC2881] (tested concentration range 0.2-2500 nM) | 2.6 | 4.8 | 0.7 | 2 | 0.1 | 0 | 0 | 0 | 0.7 | 1.5 | 0.1 |
| CCN(CC)Cc1ccc2cc(COC(=O)Nc3ccc(C(=O)NO)cc3)ccc2c1 [Givinostat] (tested concentration range 0.1-1000 nM) | 1.8 | 3.1 | 2.4 | 3.6 | 4.2 | 9.8 | 11.4 | 3.9 | 2.3 | 9.3 | 4.9 |
| Cc1ccc(Nc2nccc(N(C)c3ccc4c(C)n(C)nc4c3)n2)cc1S(N)(=O)=O [Pazopanib] (tested concentration range 1-10000 nM) | 4 | 5.1 | 3.6 | 1.1 | 6.7 | 0 | 0.2 | 5 | 5.4 | 4.1 | 3.7 |
| CC1=C(/C=C/C(C)=C/C=C/C(C)=C/C(=O)O)C(C)(C)CCC1 [Tretinoin] (tested concentration range 1-10000 nM) | 0.2 | 5 | 1.4 | 2.7 | 5 | 0 | 0 | 8.2 | 0 | 0 | 1.7 |
| O=C(c1ccc(OCCN2CCCCC2)cc1)c1c(-c2ccc(O)cc2)sc2cc(O)ccc12 [Raloxifene] (tested concentration range 1-10000 nM) | 2.4 | 0.5 | 0 | 0.4 | 0.7 | 2.9 | 5.8 | 0.8 | 0.5 | 2.9 | 0.2 |
| O=C(CCCCCCC(=O)Nc1ccccc1)NO [Vorinostat] (tested concentration range 1-10000 nM) | 6.3 | 3.1 | 4 | 4.2 | 6.5 | 9.7 | 9.7 | 3.4 | 4.9 | 10 | 4.1 |
| Nc1ncn([C@@H]2O[C@H](CO)[C@@H](O)[C@H]2O)c(=O)n1 [Azacitidine] (tested concentration range 1-10000 nM) | 1.8 | 3.2 | 2.3 | 2.2 | 3 | 2.8 | 2 | 2.6 | 2.3 | 2.4 | 0.5 |
| CC(C)Oc1ccc(-c2nn([C@@H](C)c3oc4ccc(F)cc4c(=O)c3-c3cccc(F)c3)c3ncnc(N)c23)cc1F [Umbralisib] (tested concentration range 0.2-2500 nM) | 2.4 | 0 | 1.1 | 0 | 0.9 | 0 | 0 | 0 | 0 | 3.4 | 0 |
| CO[C@H]1C(=O)[C@]2(C)[C@@H](OC)C[C@H]3OC[C@@]3(OC(C)=O)[C@H]2[C@H](OC(=O)c2ccccc2)[C@]2(O)C[C@H](OC(=O)[C@H](O)[C@@H](NC(=O)OC(C)(C)C)c3ccccc3)C(C)=C1C2(C)C [Cabazitaxel] (tested concentration range 0.1-1000 nM) | 14.2 | 26.4 | 14.6 | 18.4 | 18.1 | 26.5 | 28.2 | 22.2 | 13 | 35.6 | 15.8 |
| O=C(Nc1cnn2ccc(N3CCC[C@@H]3c3cc(F)ccc3F)nc12)N1CC[C@H](O)C1 [Larotrectinib] (tested concentration range 0.1-1000 nM) | 0 | 0 | 0 | 0 | 0 | 0 | 0 | 0 | 0 | 0 | 0 |
| CCOC(=O)C1=CCCC[C@H]1S(=O)(=O)Nc1ccc(F)cc1Cl [Resatorvid] (tested concentration range 1-10000 nM) | 5.7 | 0.3 | 0 | 3.6 | 0 | 0 | 0 | 0 | 0 | 0.4 | 0 |
| COc1cc2/c(=N/c3ccc(Br)cc3F)nc[nH]c2cc1OCC1CCN(C)CC1 [Vandetanib] (tested concentration range 0.1-1000 nM) | 2.4 | 0.2 | 5.1 | 0.1 | 6.4 | 0 | 0.4 | 0 | 4.6 | 0 | 4.4 |
